{"source": "patent US10933063B2", "about": "(priority 2017, dated 2021)"}
{"target": "BTK (Homo sapiens (Human), UniProt Q06187)", "sequence (Q06187 whole entry, looked up, species assumed)": "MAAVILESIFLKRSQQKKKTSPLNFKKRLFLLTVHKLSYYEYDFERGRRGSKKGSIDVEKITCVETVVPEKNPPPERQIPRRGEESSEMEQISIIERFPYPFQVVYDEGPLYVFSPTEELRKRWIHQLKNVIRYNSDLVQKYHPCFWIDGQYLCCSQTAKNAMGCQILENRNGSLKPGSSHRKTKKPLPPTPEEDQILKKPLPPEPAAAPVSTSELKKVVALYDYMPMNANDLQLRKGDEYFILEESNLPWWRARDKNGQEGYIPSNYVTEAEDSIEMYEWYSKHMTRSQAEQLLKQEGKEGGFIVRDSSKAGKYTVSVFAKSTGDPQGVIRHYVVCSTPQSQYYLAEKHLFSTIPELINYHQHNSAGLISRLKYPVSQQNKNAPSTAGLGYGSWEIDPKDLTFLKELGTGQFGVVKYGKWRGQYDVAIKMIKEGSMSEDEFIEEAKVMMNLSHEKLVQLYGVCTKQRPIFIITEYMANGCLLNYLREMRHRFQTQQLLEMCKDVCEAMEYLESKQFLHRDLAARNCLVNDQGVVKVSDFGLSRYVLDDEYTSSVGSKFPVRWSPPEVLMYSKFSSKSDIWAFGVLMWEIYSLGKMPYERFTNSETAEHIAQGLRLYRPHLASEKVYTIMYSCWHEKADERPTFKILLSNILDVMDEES", "experiment": "biochemical", "units": {"IC50": "nM"}}
{"smiles": "C=CC(=O)N1CCCC[C@H]1c1nc(-c2ccc(C(=O)Nc3cc(C(F)(F)F)ccn3)cc2)c2c(C(F)(F)F)nccn12", "note": "[Example 201, (S)-4-(3-(1-acryloylpiperidin-2-yl)-8-(trifluoromethyl)imidazo[1,5-a]pyrazin-1-yl)-N-(4-(trifluoromethyl)pyridin-2-yl)benzamide]", "IC50": "1000 to 10000"}
{"smiles": "COc1cccc(Oc2ccc(-c3nc([C@@H]4CCCN(C(=O)/C(C#N)=C/C(C)(C)C)C4)n4ccncc34)cc2)c1F", "note": "[Example 2, (R,E)-2-(3-(1-(4-(2-Fluoro-3-methoxyphenoxy)phenyl)imidazo[1,5-a]pyrazin-3-yl)piperidine-1-carbonyl)-4,4-dimethylpent-2-enenitrile]", "IC50": "10 to 100"}
{"smiles": "CC#CC(=O)N1CCC[C@H]1c1nc(-c2ccc(C(=O)Nc3cc(C(F)(F)F)ccn3)cc2F)c2c(CO)nccn12", "note": "[Example 208, (S)-4-(3-(1-(but-2-ynoyl)pyrrolidin-2-yl)-8-(hydroxymethyl)imidazo [1,5-a]pyrazin-1-yl)-3-fluoro-N-(4-(trifluoromethyl)pyridin-2-yl)benzamide]", "IC50": "100 to 1000"}
{"smiles": "CC#CC(=O)N1CCCC[C@H]1c1nc(-c2ccc(COc3cccc(F)c3)cc2)c2c(C)nccn12", "note": "[Example 157, (S)-1-(2-(1-(4-((3-fluorophenoxy)methyl)phenyl)-8-methylimidazo[1,5-a]pyrazin-3-yl)piperidin-1-yl)but-2-yn-1-one]", "IC50": "100 to 1000"}
{"smiles": "C=CC(=O)N1CC[C@@H](c2nc(-c3ccc(Oc4cccc(OC)c4F)cc3)c3cncc(OC(C)C)n23)C1", "note": "[Example 114, (R)-1-(3-(1-(4-(2-fluoro-3-methoxyphenoxy)phenyl)-5-isopropoxyimidazo[1,5-a]pyrazin-3-yl)pyrrolidin-1-yl)prop-2-en-1-one]", "IC50": "10 to 100"}
{"smiles": "CC#CC(=O)N1CCC[C@H]1c1nc(-c2ccc(COc3cccc(F)c3)cc2)c2cnccn12", "note": "[Example 147, (S)-1-(2-(1-(4-((3-fluorophenoxy)methyl)phenyl)imidazo[1,5-a]pyrazin-3-yl)pyrrolidin-1-yl)but-2-yn-1-one]", "IC50": "1000 to 10000"}
{"smiles": "C=CC(=O)N1CCCC[C@H]1c1nc(-c2ccc(OCc3cccc(F)c3)cc2)c2c(C)nccn12", "note": "[Example 139, (S)-1-(2-(1-(4-((3-fluorobenzyl)oxy)phenyl)-8-methylimidazo[1,5-a]pyrazin-3-yl)piperidin-1-yl)prop-2-en-1-one]", "IC50": "10 to 100"}
{"smiles": "CC#CC(=O)N1CC[C@@H](c2nc(-c3ccc(Oc4cccc(OC)c4F)cc3)c3cncc(OC4CCC4)n23)C1", "note": "[Example 101, (R)-1-(3-(5-cyclobutoxy-1-(4-(2-fluoro-3-methoxyphenoxy)phenyl)imidazo[1,5-a]pyrazin-3-yl)pyrrolidin-1-yl)but-2-yn-1-one]", "IC50": "10 to 100"}
{"smiles": "CC#CC(=O)N1CCC[C@H]1c1nc(-c2ccc(OCc3cccc(F)c3F)cc2)c2cnccn12", "note": "[Example 127, (S)-1-(2-(1-(4-((2,3-difluorobenzyl)oxy)phenyl)imidazo[1,5-a]pyrazin-3-yl)pyrrolidin-1-yl)but-2-yn-1-one]", "IC50": "1000 to 10000"}
{"smiles": "C=CC(=O)N1CCCC[C@H]1c1nc(-c2ccc(COc3ccc(F)c(F)c3)cc2)c2cnccn12", "note": "[Example 148, (S)-1-(2-(1-(4-((3,4-difluorophenoxy)methyl)phenyl)imidazo[1,5-a]pyrazin-3-yl)piperidin-1-yl)prop-2-en-1-one]", "IC50": "100 to 1000"}
{"smiles": "CC#CC(=O)N1CCC[C@H]1c1nc(-c2ccc(COc3ccc(F)c(F)c3)cc2)c2cnccn12", "note": "[Example 132, (S)-l-(2-(1-(4-((3,4-difluorophenoxy)methyl)phenyl)imidazo[1,5-a]pyrazin-3-yl)pyrrolidin-1-yl)but-2-yn-1-one]", "IC50": "1000 to 10000"}
{"smiles": "CC#CC(=O)N1CCC[C@H]1c1nc(-c2ccc(Oc3cccc(OC)c3F)cc2)c2c(C)nccn12", "note": "[Example 57, (S)-1-(2-(1-(4-(2-fluoro-3-methoxyphenoxy)phenyl)-8-methylimidazo[1,5-a]pyrazin-3-yl)pyrrolidin-1-yl)but-2-yn-1-one]", "IC50": "10 to 100"}
{"smiles": "COc1cccc(Oc2ccc(-c3nc([C@@H]4CCCN4Cc4ccccc4)n4ccncc34)cc2)c1F", "note": "[Example 32, (S)-3-(1-benzylpyrrolidin-2-yl)-1-(4-(2-fluoro-3-methoxyphenoxy)phenyl)imidazo[1,5-a]pyrazine]", "IC50": "1000 to 10000"}
{"smiles": "CC#CC(=O)N1CCC[C@H]1c1nc(-c2ccc(Oc3cccc(OC)c3C)cc2)c2cnccn12", "note": "[Example 21, (S)-1-(2-(1-(4-(3-methoxy-2-methylphenoxy)phenyl)imidazo[1,5-a]pyrazin-3-yl)pyrrolidin-1-yl)but-2-yn-1-one]", "IC50": "100 to 1000"}
{"smiles": "CC#CC(=O)N1CCCC[C@H]1c1nc(-c2ccc(Oc3cccc(OC)c3F)cc2)c2cncc(C)n12", "note": "[Example 79, (S)-1-(2-(1-(4-(2-fluoro-3-methoxyphenoxy)phenyl)-5-methylimidazo[1,5-a]pyrazin-3-yl)piperidin-1-yl)but-2-yn-1-one]", "IC50": "100 to 1000"}
{"smiles": "CC#CC(=O)N1CC[C@@H](c2nc(-c3ccc(Oc4cccc(OC)c4F)cc3)c3cncc(C)n23)C1", "note": "[Example 73, (R)-1-(3-(1-(4-(2-fluoro-3-methoxyphenoxy)phenyl)-5-methylimidazo[1,5-a]pyrazin-3-yl)pyrrolidin-1-yl)but-2-yn-1-one]", "IC50": "10 to 100"}
{"smiles": "CC#CC(=O)N1CCC[C@H]1c1nc(-c2ccc(COc3ccc(F)cc3)cc2)c2cnccn12", "note": "[Example 128, (S)-1-(2-(1-(4-((4-fluorophenoxy)methyl)phenyl)imidazo[1,5-a]pyrazin-3-yl)pyrrolidin-1-yl)but-2-yn-1-one]", "IC50": "1000 to 10000"}
{"smiles": "C=CC(=O)N1CCC[C@H]1c1nc(-c2ccc(Oc3ccccc3)cc2Cl)c2cnccn12", "note": "[Example 13, (S)-1-(2-(1-(2-chloro-4-phenoxyphenyl)imidazo[1,5-a]pyrazin-3-yl)pyrrolidin-1-yl)prop-2-en-1-one]", "IC50": "10 to 100"}
{"smiles": "CC#CC(=O)N1CCC[C@@H](c2nc(-c3ccc(Oc4cccc(OC)c4F)cc3)c3cncc(C)n23)C1", "note": "[Example 71, (R)-1-(3-(1-(4-(2-fluoro-3-methoxyphenoxy)phenyl)-5-methylimidazo[1,5-a]pyrazin-3-yl)piperidin-1-yl)but-2-yn-1-one]", "IC50": "100 to 1000"}
{"smiles": "CC#CC(=O)N1CC[C@@H](c2nc(-c3ccc(C(=O)Nc4cc(C(F)(F)F)ccn4)cc3)c3cnccn23)C1", "note": "[Example 211, (R)-4-(3-(1-(but-2-ynoyl)pyrrolidin-3-yl)imidazo[1,5-a]pyrazin-1-yl)-N-(4-(trifluoromethyl)pyridin-2-yl)benzamide]", "IC50": "10 to 100"}
{"smiles": "CC#CC(=O)N1CCCC[C@H]1c1nc(-c2ccc(C(=O)Nc3ccccn3)cc2)c2c(C)nccn12", "note": "[Example 171, (S)-4-(3-(1-(but-2-ynoyl)piperidin-2-yl)-8-methylimidazo[1,5-a]pyrazin-1-yl)-N-(pyridin-2-yl)benzamide]", "IC50": "10 to 100"}
{"smiles": "CC#CC(=O)N1CCC[C@@H](c2nc(-c3ccc(C(=O)Nc4ccccn4)cc3)c3c(C)ncc(C)n23)C1", "note": "[Example 185, (R)-4-(3-(1-(but-2-ynoyl)piperidin-3-yl)-5,8-dimethylimidazo[1,5-a]pyrazin-1-yl)-N-(pyridin-2-yl)benzamide]", "IC50": "100 to 1000"}
{"smiles": "CC#CC(=O)N1CCC[C@H]1c1nc(-c2ccc(Oc3cccc(OC)c3F)cc2)c2c(C)ncc(C)n12", "note": "[Example 65, (S)-1-(2-(1-(4-(2-fluoro-3-methoxyphenoxy)phenyl)-5,8-dimethylimidazo[1,5-a]pyrazin-3-yl)pyrrolidin-1-yl)but-2-yn-1-one]", "IC50": "10 to 100"}
{"smiles": "CC#CN1CCC[C@H]1c1nc(-c2ccc(C(=O)Nc3cc(C(F)(F)F)ccn3)cc2)c2c(CF)nccn12", "note": "[Example 209, (S)-4-(8-(fluoromethyl)-3-(1-(prop-1-yn-1-yl)pyrrolidin-2-yl)imidazo [1,5-a]pyrazin-1-yl)-N-(4-(trifluoromethyl)pyridin-2-yl)benzamide]", "IC50": "100 to 1000"}
{"smiles": "C=CC(=O)N1CCCC[C@H]1c1nc(-c2ccc(Oc3cccc(C)c3)cc2)c2cnccn12", "note": "[Example 50, (S)-1-(2-(1-(4-(m-tolyloxy)phenyl)imidazo[1,5-a]pyrazin-3-yl)piperidin-1-yl)prop-2-en-1-one]", "IC50": "10 to 100"}
{"smiles": "CC#CC(=O)N1CC[C@@H](c2nc(-c3ccc(Oc4cccc(OC)c4F)cc3)c3c(CC)nccn23)C1", "note": "[Example 107, (R)-1-(3-(8-ethyl-1-(4-(2-fluoro-3-methoxyphenoxy)phenyl)imidazo[1,5-a]pyrazin-3-yl)pyrrolidin-1-yl)but-2-yn-1-one]", "IC50": "10 to 100"}
{"smiles": "C=CC(=O)N1CCCC[C@H]1c1nc(-c2ccc(C(=O)Nc3ccccn3)cc2)c2cnccn12", "note": "[Example 168, (S)-4-(3-(1-acryloylpiperidin-2-yl)imidazo[1,5-a]pyrazin-1-yl)-N-(pyridin-2-yl) benzamide]", "IC50": "10 to 100"}
{"smiles": "COc1cccc(Oc2ccc(-c3nc([C@@H]4CCC5CCC(=O)N5C4)n4ccncc34)cc2)c1F", "note": "(stereo partly drawn) [Example 213, (6R)-6-(1-(4-(2-fluoro-3-methoxyphenoxy)phenyl)imidazo[1,5-a]pyrazin-3-yl)hexahydroindolizin-3(2H)-one]", "IC50": "100 to 1000"}
{"smiles": "CC#CC(=O)N1CCC[C@H]1c1nc(-c2ccc(COc3ccccc3)cc2)c2cnccn12", "note": "[Example 144, (S)-1-(2-(1-(4-(phenoxymethyl)phenyl)imidazo[1,5-a]pyrazin-3-yl)pyrrolidin-1-yl)but-2-yn-1-one]", "IC50": "1000 to 10000"}
{"smiles": "CC#CC(=O)N1CCC[C@@H](c2nc(-c3ccc(C(=O)Nc4ccccn4)cc3)c3cncc(C)n23)C1", "note": "[Example 179, (R)-4-(3-(1-(but-2-ynoyl)piperidin-3-yl)-5-methylimidazo[1,5-a]pyrazin-1-yl)-N-(pyridin-2-yl)benzamide]", "IC50": "1000 to 10000"}
{"smiles": "C=CC(=O)N1CCC[C@H]1c1nc(-c2ccc(Oc3cccc(OC)c3F)cc2)c2cnc(C)cn12", "note": "[Example 83, (S)-1-(2-(1-(4-(2-fluoro-3-methoxyphenoxy)phenyl)-6-methylimidazo[1,5-a]pyrazin-3-yl)pyrrolidin-1-yl)prop-2-en-1-one]", "IC50": "10 to 100"}
{"smiles": "CC#CC(=O)N1CCC[C@H]1c1nc(-c2ccc(C(=O)Nc3ccccn3)cc2)c2c(CO)nccn12", "note": "[Example 207, (S)-4-(3-(1-(but-2-ynoyl)pyrrolidin-2-yl)-8-(hydroxymethyl)imidazo [1,5-a]pyrazin-1-yl)-N-(pyridin-2-yl)benzamide]", "IC50": "100 to 1000"}
{"smiles": "CC#CC(=O)N1CCCC[C@H]1c1nc(-c2cccc(OCc3cccc(C(F)(F)F)c3)c2)c2c(C)nccn12", "note": "[Example 163, (S)-1-(2-(8-methyl-1-(3-((3-(trifluoromethyl)benzyl)oxy)phenyl)imidazo[1,5-a]pyrazin-3-yl)piperidin-1-yl)but-2-yn-1-one]", "IC50": "1000 to 10000"}
